According to ChEMBL document CHEMBL1201862, “PubChem BioAssay data set” (2004):
Calls of active or inactive are those of the source.

Key:
[1] = target: T1, Trace amine-associated receptor 1 (Homo sapiens, UniProt Q96RJ0); test: Counterscreen for agonists of the human trace amine associated receptor 1 (hTAAR1): Fluorescence-based cell-based high throughput dose response assay to identify hTAAR1 agonist that also desensitize TAAR1 receptor response.; assay type: functional
cells [2] = assay type: functional, cell-based
[3] = target: T1, Trace amine-associated receptor 1; test: Fluorescence-based cell-based high throughput dose response assay to identify agonists of the human trace amine associated receptor 1 (TAAR1).; assay type: functional
cells [4] = assay type: functional, cell-based; remark: listed apart in the source
HeLa = test: HeLa cell cytotoxicity, dose response, cytotoxicity control, ATP luminescence, cherry-pick samples (AID 687004); assay type: functional, cell-based; details: Homo sapiens
[5] = A Cell-Based Confirmatory Screen for Compounds that Inhibit VEEV, TC-83 (8).; assay type: functional
[6] = target: Metabotropic glutamate receptor 3 (Rattus norvegicus, UniProt P31422); test: mGlu3 NAM potency via calcium readout, dose response, mGlu3 NAM project, TREx293 cells, Galpha15, calcium flux (AID 651840); assay type: functional
Chain of Metabotropic glutamate receptor 3 (P31422 whole entry): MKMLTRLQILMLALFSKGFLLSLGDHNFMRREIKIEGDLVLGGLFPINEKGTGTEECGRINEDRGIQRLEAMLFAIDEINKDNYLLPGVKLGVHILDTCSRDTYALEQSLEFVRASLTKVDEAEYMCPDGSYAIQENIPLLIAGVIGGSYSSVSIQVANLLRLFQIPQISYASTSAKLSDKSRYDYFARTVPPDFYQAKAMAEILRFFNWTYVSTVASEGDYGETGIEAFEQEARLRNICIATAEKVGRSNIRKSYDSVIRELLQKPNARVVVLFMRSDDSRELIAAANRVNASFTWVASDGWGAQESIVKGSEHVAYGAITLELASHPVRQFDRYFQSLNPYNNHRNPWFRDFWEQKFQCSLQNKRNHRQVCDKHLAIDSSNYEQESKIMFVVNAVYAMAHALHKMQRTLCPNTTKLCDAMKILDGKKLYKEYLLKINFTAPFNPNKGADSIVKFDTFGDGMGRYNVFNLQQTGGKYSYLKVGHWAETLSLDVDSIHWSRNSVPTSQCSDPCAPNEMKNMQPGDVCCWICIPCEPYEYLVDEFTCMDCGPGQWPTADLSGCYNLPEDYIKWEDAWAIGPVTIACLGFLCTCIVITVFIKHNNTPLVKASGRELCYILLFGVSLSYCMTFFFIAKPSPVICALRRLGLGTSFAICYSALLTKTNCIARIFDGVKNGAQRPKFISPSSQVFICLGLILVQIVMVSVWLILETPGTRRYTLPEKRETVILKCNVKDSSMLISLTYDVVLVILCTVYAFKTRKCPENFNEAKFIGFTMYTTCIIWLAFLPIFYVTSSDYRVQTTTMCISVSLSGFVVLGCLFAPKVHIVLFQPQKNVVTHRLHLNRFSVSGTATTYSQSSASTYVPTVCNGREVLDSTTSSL

[7] = HEK293T cell cytotoxicity, dose response, cytotoxicity control, luminescence plate reader, powder samples, set 4 (AID 651863); assay type: functional, cell-based; details: HEK293
[8] = HepG2 cell cytotoxicity, dose response, cytotoxicity control, luminescence plate reader, powder samples, set 2 (AID 651860); assay type: functional, cell-based
[9] = A375 melanoma cell viability loss, dose response, counter-screen for MITF inhibitor project, CellTiter-Glo luminescence, dry powder, set 4 (AID 624364); assay type: functional, cell-based; details: A-375;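 also: A375 melanoma cells are MITF independent so this is a counter screen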
[10] = A375 melanoma cell cytotoxicity, dose response, counter-screen for MITF inhibitor project, CellTiter-Glo luminescence, dry powder, set 2 (AID 624489); assay type: functional, cell-based; details: A-375;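 also: actives are compounds lowering A375 viability meaning general cytotoxicity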
[11] = target: Disintegrin and metalloproteinase domain-containing protein 17 (Homo sapiens, UniProt P78536); test: ADAM17 protease inhibitors, dose response, counter-screen for ADAM10 exosite inhibitor project, biochemical, quenched FRET substrate (AID 743253)
Chain of Disintegrin and metalloproteinase domain-containing protein 17 (P78536 whole entry, the tested form may be a part): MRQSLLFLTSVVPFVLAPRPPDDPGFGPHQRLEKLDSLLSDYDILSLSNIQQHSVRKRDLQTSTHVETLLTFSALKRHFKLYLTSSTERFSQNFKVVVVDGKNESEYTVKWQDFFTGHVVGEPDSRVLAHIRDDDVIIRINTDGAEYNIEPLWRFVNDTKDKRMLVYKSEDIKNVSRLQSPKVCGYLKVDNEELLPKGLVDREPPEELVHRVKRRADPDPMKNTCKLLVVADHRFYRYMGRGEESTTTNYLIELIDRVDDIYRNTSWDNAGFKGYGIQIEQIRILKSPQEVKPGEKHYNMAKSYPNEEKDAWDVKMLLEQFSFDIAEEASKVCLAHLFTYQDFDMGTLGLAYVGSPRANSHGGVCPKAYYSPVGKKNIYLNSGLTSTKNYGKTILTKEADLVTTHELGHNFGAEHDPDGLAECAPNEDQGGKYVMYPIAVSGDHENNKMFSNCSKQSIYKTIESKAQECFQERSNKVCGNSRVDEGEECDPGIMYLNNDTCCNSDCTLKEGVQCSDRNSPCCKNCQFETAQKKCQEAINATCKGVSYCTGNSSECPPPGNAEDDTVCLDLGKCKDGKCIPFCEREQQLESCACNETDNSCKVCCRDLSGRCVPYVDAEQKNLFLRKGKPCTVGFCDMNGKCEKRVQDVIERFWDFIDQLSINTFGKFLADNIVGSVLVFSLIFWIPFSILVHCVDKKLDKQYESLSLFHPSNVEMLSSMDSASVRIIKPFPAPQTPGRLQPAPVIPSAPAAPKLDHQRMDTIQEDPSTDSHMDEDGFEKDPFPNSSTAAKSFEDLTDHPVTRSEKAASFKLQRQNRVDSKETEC

[12] = ADAM10 inhibitors, peptide cleavage, dose response, biochemical, QFRET (AID 743254);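 also: ADAM10 enzyme with the DM2 quenched FRET peptide as substrate; EDANS fluorescence gain as the protease cuts the substrate; inhibitor potency against ADAM10 proteolytic activity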

T1 sequence (Q96RJ0 whole entry): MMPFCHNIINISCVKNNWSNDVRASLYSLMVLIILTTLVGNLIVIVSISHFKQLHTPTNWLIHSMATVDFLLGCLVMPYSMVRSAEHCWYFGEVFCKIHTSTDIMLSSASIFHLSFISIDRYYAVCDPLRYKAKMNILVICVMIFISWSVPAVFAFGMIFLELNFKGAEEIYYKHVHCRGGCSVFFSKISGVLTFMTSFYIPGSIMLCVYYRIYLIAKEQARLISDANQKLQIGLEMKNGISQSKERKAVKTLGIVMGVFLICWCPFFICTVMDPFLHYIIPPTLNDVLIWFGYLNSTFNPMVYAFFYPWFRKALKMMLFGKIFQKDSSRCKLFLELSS

CC(=NCCc1ccc(O)cc1)C1=C(O)OCC1
IC50 [1]: 9.27 µM (active) | IC50 (cells [2]): > 29.9 µM (inactive) | EC50 [3]: 2.05 µM (active) | EC50 (cells [4]): > 29.9 µM (inactive)

C[C@@H]1CN([C@@H](C)CO)C(=O)c2cc(NC(=O)Nc3cccc4ccccc34)ccc2O[C@@H]1CN(C)C(=O)Nc1ccccc1
AC50 (HeLa): 0.252 µM (active)

CN1CCN(C)/C(=N/c2cc(Cl)c(C#N)cc2C(=O)Nc2ccccc2)C1
IC50 [5]: < 0.26 µM (active)

COc1ccc(C#Cc2ccc(C(=O)N3CCCC4(C3)OCCO4)cc2)cc1
IC50 [6]: 7.17 µM

COc1ccc(CC/N=C2\C=C(NS(=O)(=O)c3c(C)cc(C)cc3C)c3ccccc3C2=O)cc1
AC50 [7]: > 52 µM (inactive) | AC50 [8]: > 52 µM (inactive)

C=C1C(=O)OC2C1CC/C(C)=C\CCC1(C)OC21 (stereo not drawn)
AC50 [9]: > 70 µM (inactive) | AC50 [10]: 43.9 µM (active)

O=C(CC1S/C(=N\c2ccccc2)N(Cc2ccccn2)C1=O)Nc1ccc(Br)cc1 (stereo not drawn)
IC50 [11]: > 69.5 µM (inactive) | IC50 [12]: 37.4 µM (inactive)
